# Results published in patent publication US20250346643A1, “TROPOMYOSIN KINASE RECEPTOR (TRK) LIGANDS AS THERAPEUTICS TO SUPPORT LIVER REGENERATION” (Vanderbilt University, priority 2024, published 2025).
# System: HSC-depleted mice (liver)
# Test: Treatment of HSC-depleted mice with recombinant NTF3
# Type: in vivo, mouse
# Protocol: T cell isolation and adoptive transfer. CD8+ T cells were isolated from spleen and lymph nodes (brachial, inguinal, axillar, submandibular, superficial cervical and mesenteric) of Jedi and controls. Spleens and lymph nodes were collected in ice cold T cell media (RPMI [Gibco® 11875-093] supplemented by 10% FBS, 2 mM L-glutamine [Thermo Fisher Scientific, Waltham, MA; 25030-081], 1% MEM nonessential amino acids [Thermo Fisher Scientific, Waltham, MA; 11140050] and 1 mM sodium pyruvate [Thermo Fisher Scientific, Waltham, MA; 11360-070]). Spleen and lymph nodes were mechanically homogenized and filtered through a 70 μm cell strainer (Falcon®). The cell suspension was centrifuged for 10 min at 4° C., 300 g. Red blood cell (RBC) lysis was performed with RBC buffer (Thermo Fisher Scientific, Waltham, MA; A10492). Cells were then washed with T cell media, filtered through a 70 μm cell strainer and centrifuged for 10 min at 4° C., 300 g. The cell pellet was then resuspended in flow buffer (PBS, pH 7.4, 2 mM EDTA, 0.05% BSA) and CD8+ T cells enriched using the mouse CD8+ T cell isolation kit (STEMCELL technologies, Vancouver, Canada; 19853A) according to the manufacturer's instructions. Enriched CD8+ T cells were centrifuged for 10 min at 4° C., 300 g, and resuspended in PBS. Mice with less than 25 g body weight were injected with up to 12 million Jedi T cells and mice greater than 25 g body weight were injected by tail vein injection with 18 million Jedi T cells. Control mice were injected with either T cells from H-2K^d mice or with vehicle only. Mice were not injected with lentiviral GFP particles as previously described (Agudo et al., Nat Biotechnol. 2015; 33(12): 1287-1292; Agudo et al., 2018; 48(2): 271-285.e5) to avoid lentiviral GFP-expression of other cells such as hepatocytes.
# Treatment with recombinant NTF3. Four months old mice were injected via tail vein for 4 consecutive days with recombinant NTF3 (STEMCELL technology, Vancouver, Canada; cat. 78074, lots 1000070683, 1000077434) diluted in sterile 0.9% saline (0.9% NaCl) or vehicle only. Mice were weighed daily and recombinant NTF3 given at 20 ng/g body weight or 100 ng/g body weight, respectively. Lyophilized NTF3 was solubilized in 0.1% BSA/PBS (bovine serum albumin, Sigma-Aldrich, St. Louis, MO; A3059) and stored at −80° C. until use.
# Immunohistochemistry. For immunohistochemistry, formalin-fixed paraffin embedded sections were cut at 4 μm thickness and slides incubated at 65° C. for 30 min. Slides were deparaffinized in Histo-Clear® (National Diagnostics, Charlotte, NC; HS2001GLL) and rehydrated by an ethanol gradient. Heat antigen retrieval was performed in 10 mM sodium citrate (pH 6.0) in a pressure cooker (Cuisinart®, CPC-600C), 20 min at high-pressure, natural pressure release for 30 min, and cooled at room temperature (i.e., about 20° C. to about 22° C.) for 30 min. Endogenous peroxidase quenching was performed with 1.5% hydrogen peroxide (Sigma-Aldrich, St. Louis, MO; H1009) for 20 min, and slides washed twice in phosphate buffered saline (PBS) twice. Blocking was performed for 30 min with Protein Block, Serum-free (Agilent, Santa Clara, CA; X090930-2). The primary antibody (TABLE 1) was diluted in antibody diluent (Agilent, Santa Clara, CA; S080983-2) and applied to the slides in a wet chamber overnight at 4° C. After 2 washes in PBS, slides were incubated with the appropriate secondary antibody (TABLE 1) for 30 min followed by two washes in PBS. […] The same reveal time was then used on all experimental slides. Slides were stained with hematoxylin (Sigma-Aldrich, St. Louis, MO; GHS332) for 30 sec, washed gently in lukewarm tap water for 5 min, and washed twice in distilled water, followed by two washes in phosphate buffered saline (PBS, pH 7.4). Slides were washed in increasing ethanol/water gradients, followed by three washes in Histo-Clear®. […]
substance,measurement,setting,value
"NTF3: neurotrophin-3, recombinant protein; HSC-derived hepatocyte mitogen, ligand of TRKA, TRKB, TRKC",IGFBP2 expression in hepatocytes,"HSC-ablated mice, NTF3",only increased CCND1 but not IGFBP2 expression
same,liver-to-body weight ratio,"HSC-depleted mice, NTF3 20 ng/g or 100 ng/g body weight, tail vein, 4 consecutive days (FIG. 10C)",dose-dependently increased
same,"liver-to-body weight ratio, higher dose group","HSC-depleted mice, NTF3 100 ng/g body weight, 4 consecutive days",significant increase
same,number of CCND1+HNF4a+ nuclei (multiplex immunohistochemistry),"HSC-depleted mice, NTF3 20 or 100 ng/g (FIG. 10E-F)",dose-dependently increased
same,nuclear CCND1 in hepatocytes in the midlobular region (staining),"HSC-depleted mice, NTF3 vs vehicle (FIG. 10D)",increased nuclear CCND1
same,Ki67+ hepatocytes,"HSC-depleted mice, NTF3 vs vehicle (FIG. 10G-H)",increase
same,PCNA in whole liver lysates (Western blotting),"HSC-depleted mice, NTF3 vs vehicle (FIG. 10I, 11B)",increased
same,CCND1 in whole liver lysates (Western blotting),"HSC-depleted mice, NTF3 vs vehicle (FIG. 10I, 11C)",increased
